Measurements: patent publication US11091495B2, “Substituted imidazo[1,2-c]pyrimidines as PRC2 inhibitors” (Mirati Therapeutics, Inc., priority 2018, dated 2021)
Read-outs that look alike come from different tables or passages of the source.

What was measured:
[1] = tested on: PRC2-mediated histone H3 Lys27 trimethylation in Pfeiffer cells (EZH2 A677G); assay: Tri-Methyl Histone H3 (Lys 27) sandwich ELISA in Pfeiffer cells; type: cell-based, human; details: 96 hours incubation, read-out: IC50 (nM), Inhibition of EZH2-mediated Histone H3 Trimethylation
Description: The Pfeiffer cell line was established from a […] from a patient having metastatic diffuse large B-cell lymphoma (DLBCL). This cell line expresses a mutant form of the EZH2 enzyme (A677G) that results in enhanced EZH2 activity leading to increased methylation of histone H3 Lys27. Increased trimethylation of histone H3 Lys27 is believed to be implicated in tumorgenesis and poor clinical prognosis in lymphomas (McCabe et al., (2012) Nature 492:108-112).
Inhibition of PRC2-mediated histone H3 methylation by compounds of Formula (I) was measured by ELISA using a Tri-Methyl Histone H3 (Lys 27) Sandwich ELISA Kit (Cell Signaling Tech #7866C) in accordance with the manufacturer's instructions. Briefly, Pfeiffer cells were cultured in RPMI medium supplemented with 10% fetal bovine serum and 1% penicillin and 1% streptomycin in 96 well culture plates at 37° C. to a density of 8000 cells/90 μl/well and the cells were harvested. A series of 3-fold serial dilutions of each test compound of Formula (I) were prepared in RPMI medium and added to the cells at final concentrations ranging from 1 μM to 0.15 nM. The plates were incubated at 37° C. for 96 hours.
After incubation, the cells were pelleted by centrifugation in a pre-cooled 4° C. rotor at 1,100 rpm for 10 min and the supernatant was removed by aspiration. The cell pellet was resuspended in 55 μl of Lysis Buffer (0.4M HCl) and incubated on ice with periodic shaking for 30 minutes. The lysed cells were subjected to centrifugation at 4,200 rpm for 10 min at 4° C. and the supernatant containing acid-soluble proteins was collected and the remainder discarded. The acid-soluble proteins were brought to a neutral pH by the addition of 20 μl of Neutralization Buffer (1 M Sodium phosphate, dibasic (pH 12.5), 2.5 mM DTT and 1 mM PMSF) and the neutralized lysates were analyzed by ELISA.
A 65 μl aliquot of each cell lysate was added to a well of a microwell strip, the microwells were sealed using tape and incubated either at 37° C. for two hours or at 4° C. overnight. After incubation, the tape was removed at the microwells were washed four times using 200 μl of 1× Wash Buffer. To each washed microwell, a 100 μl aliquot of an anti-trimethyl histone H3 Lys27 Detection Antibody solution was added and the microwells were incubated at 37° C. for one hour. […]
A 100 μl aliquot of an HRP-linked secondary antibody was added to each well, the wells were sealed with tape and incubated at 37° C. for 30 min. […] The degree of histone H3 trimethylation was determined using a spectrophotometric readout by measuring the absorbance at 450 nm and then calculating the amount of trimethylated histone H3. A=≤100 nM; B=>100 nM-≤500 nM; C=>500 nM and N.D.=not determined.

[2] = tested on: Karpas 422 cells (EZH2 Y641N); assay: Karpas 422 cell viability (Cell Titre Glo); type: cell-based, human; details: Day 4, Day 7 or Day 11 (time point not given), read-out: IC50 (nM), Inhibiting Proliferation of Cells Expressing an Activating Mutant Form of EZH2
Method: Karpas 422 cell line is a human B cell non-Hodgkin's lymphoma cell line established from a patient having DLBCL. This EZH2 heterozygotic cell line expresses a mutant form of EZH2 enzyme (Y641N) that increases histone H3 methylation and this mutation has been implicated in the tumorgenesis of lymphomas, such as DLBCL.
Karpas 422 cells (PHE cat no.,06101702) were cultured in RPMI medium supplemented with 20% fetal bovine serum and 1% penicillin/1% streptomycin and plated at a density of 1000 cells/90 μl/well in 96 well white assay plates. A dose response curve for compounds of the present invention was determined by adding a 10 μl aliquot of stock solutions of varying concentrations of compounds to the same medium in each well, over a concentration range of 10 μM using 3-fold dilutions to a final concentration of 1.5 nM. The plates were incubated at 37° C. for predetermined time periods, Day 4, Day 7, or Day 11, and the viability of the cells was measured using a CTG assay kit (Cell Titre Glo; Promega cat. no G7573) on Day 4 and Day 7 in accordance with the manufacturer's instructions.
For the viability assay for the Day 11 plates, the plates were subjected to centrifugation at 1100 rpm for five minutes on Day 7 and the supernatant was removed by aspiration. The cells were resuspended in 90 μl aliquot of the appropriate growth medium lacking the compound followed by addition of 10 μl of a 10× stock of the same compound at the same concentration. The viability of the Day 11 cells was measured using the CTG assay kit described above in accordance with the manufacturer's instructions. The IC50 values for each compound at each predetermined time point were calculated using Graph pad PRISM software and the results are shown in Table 15. A=≤250 nM; B=<250 nM-≤500 nM; and C=>500 nM.

[3] = biological target: purified human, His-tagged PRC2 complex (Homo sapiens (Human), UniProt O75530); assay: Hot Spot HMT assay of PRC2 enzymatic activity; type: biochemical; details: 10 nM PRC2 complex, core histone H3, 1 uM 3H-SAM, 1 hr at 30° C; read-out: IC50, Inhibition of PRC2-mediated Enzymatic Activity
purified human, His-tagged PRC2 complex, sequence (Q15910 whole entry): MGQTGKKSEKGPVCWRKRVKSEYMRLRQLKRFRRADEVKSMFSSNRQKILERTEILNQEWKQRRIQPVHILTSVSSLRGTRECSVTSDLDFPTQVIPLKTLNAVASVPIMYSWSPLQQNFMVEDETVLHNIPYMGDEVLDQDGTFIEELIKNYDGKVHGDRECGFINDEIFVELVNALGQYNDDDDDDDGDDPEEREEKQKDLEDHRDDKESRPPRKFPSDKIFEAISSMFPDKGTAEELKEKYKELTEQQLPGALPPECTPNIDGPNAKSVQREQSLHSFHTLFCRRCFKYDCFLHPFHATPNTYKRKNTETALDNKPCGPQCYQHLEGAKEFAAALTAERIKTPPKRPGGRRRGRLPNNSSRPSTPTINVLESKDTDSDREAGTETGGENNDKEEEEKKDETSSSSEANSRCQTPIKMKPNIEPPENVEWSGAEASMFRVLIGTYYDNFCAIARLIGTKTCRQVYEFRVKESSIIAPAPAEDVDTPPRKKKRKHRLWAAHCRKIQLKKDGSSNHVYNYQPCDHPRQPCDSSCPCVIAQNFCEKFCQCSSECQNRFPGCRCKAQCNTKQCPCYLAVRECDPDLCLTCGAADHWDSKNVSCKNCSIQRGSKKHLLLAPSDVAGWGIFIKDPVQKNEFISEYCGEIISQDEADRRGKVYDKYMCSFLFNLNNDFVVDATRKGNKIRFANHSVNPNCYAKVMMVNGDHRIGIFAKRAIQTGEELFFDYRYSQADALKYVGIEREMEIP
purified human, His-tagged PRC2 complex, sequence (O75530 whole entry): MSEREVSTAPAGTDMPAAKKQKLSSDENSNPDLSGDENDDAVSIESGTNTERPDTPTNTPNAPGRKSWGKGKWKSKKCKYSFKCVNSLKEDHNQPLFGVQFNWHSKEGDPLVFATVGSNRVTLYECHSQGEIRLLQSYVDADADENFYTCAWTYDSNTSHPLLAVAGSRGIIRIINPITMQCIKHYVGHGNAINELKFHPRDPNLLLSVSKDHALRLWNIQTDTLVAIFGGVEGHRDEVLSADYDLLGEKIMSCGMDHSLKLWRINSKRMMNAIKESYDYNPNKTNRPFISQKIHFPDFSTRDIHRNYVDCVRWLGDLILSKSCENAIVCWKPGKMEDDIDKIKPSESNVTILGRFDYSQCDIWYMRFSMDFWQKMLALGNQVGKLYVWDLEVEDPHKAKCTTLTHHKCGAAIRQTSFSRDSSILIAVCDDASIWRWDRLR
purified human, His-tagged PRC2 complex, sequence (Q15022 whole entry partner): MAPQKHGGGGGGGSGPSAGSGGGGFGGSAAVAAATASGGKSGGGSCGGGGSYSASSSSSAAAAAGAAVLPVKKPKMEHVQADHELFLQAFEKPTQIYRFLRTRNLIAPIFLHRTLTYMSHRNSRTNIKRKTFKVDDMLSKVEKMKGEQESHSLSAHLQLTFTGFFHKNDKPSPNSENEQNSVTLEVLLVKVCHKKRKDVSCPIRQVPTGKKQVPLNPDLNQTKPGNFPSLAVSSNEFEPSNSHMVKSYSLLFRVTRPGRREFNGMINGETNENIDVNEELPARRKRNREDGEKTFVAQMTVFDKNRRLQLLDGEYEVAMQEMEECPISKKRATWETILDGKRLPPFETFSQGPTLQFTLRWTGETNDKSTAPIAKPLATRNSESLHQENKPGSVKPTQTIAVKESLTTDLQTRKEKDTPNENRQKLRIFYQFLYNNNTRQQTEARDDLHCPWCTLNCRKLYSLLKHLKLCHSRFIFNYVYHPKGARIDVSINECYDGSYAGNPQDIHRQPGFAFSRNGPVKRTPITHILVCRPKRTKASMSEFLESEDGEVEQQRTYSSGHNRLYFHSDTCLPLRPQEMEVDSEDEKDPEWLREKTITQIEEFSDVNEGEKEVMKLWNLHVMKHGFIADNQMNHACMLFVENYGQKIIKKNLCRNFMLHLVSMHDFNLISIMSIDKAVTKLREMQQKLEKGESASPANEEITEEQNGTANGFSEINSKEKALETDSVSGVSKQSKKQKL
purified human, His-tagged PRC2 complex, sequence (Q6ZN18 whole entry partner): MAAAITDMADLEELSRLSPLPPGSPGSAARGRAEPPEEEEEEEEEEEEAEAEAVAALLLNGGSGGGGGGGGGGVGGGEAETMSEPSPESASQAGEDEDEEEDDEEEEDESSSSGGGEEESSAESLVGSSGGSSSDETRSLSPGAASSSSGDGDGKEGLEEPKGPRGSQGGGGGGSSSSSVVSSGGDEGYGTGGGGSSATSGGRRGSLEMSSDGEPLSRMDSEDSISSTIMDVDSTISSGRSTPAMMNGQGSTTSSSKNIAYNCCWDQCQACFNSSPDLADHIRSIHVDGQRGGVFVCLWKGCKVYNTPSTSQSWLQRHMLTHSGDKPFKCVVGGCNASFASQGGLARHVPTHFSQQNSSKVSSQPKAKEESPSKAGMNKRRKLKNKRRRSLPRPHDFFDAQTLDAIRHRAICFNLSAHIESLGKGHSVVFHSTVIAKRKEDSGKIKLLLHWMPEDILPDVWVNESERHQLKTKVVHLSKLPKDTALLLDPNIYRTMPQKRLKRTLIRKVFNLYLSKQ
purified human, His-tagged PRC2 complex, sequence (Q09028 whole entry partner): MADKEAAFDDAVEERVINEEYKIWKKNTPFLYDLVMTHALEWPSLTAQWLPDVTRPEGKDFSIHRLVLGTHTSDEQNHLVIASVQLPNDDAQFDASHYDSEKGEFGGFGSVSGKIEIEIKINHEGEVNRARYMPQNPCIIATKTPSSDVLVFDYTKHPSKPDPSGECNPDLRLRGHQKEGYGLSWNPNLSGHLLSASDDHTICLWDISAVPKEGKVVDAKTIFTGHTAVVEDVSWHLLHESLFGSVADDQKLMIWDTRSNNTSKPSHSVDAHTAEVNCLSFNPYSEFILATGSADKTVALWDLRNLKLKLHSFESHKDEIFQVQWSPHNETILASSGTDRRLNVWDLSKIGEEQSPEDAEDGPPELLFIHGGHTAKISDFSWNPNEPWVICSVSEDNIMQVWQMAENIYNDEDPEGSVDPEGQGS
Description: The assay uses purified human, His-tagged PRC2 complex, including N-terminal His-tagged EZH2 enzyme, N-terminal Flag-tagged embryonic ectoderm development protein (EED), N-terminal His-tagged suppressor of zeste 12 (SUZ12), N-terminal His-tagged AEBP2, and N-terminal His-tagged RbAp48. In this assay, the transfer of the tritiated methyl group from radiolabeled S-adenosyl methionine (SAM) to purified core histone protein by EZH2 is quantitated after filtration to determine the activity of the core PRC2 complex in the presence and absence of compound.
The initial starting concentration for the serial dilutions of each compound was 1.0 μM. […] SAH (S-(5-adenosyl)-L-homocysteine) was used as a positive control for assay validation.
An aliquot of each serial dilution of test compound was added to deep 384 well plate using Acoustic Technology instrument (Echo 550, LabCyte) containing reaction buffer (50 mM Tris-HCl (pH 8.)), 0.01% Brij35, 1 mM EDTA, 1 mM DTT, 1 mM PMSF and 1% DMSO), 10 nM purified PRC2 complex and 0.05 mg/ml core histone H3 in a 5 μl volume. The reaction was mixed gently and then pre-incubated for 20 min at 30° C. […] After 1 hr, the reaction product was detected using a filter binding method and the amount of tritiated H3 core histone was quantitated using a scintillation counter.

Cc1nc(N2CCOCC2)ccc1-c1cnc(NCc2c(F)ccc3c2CCO3)n2cc(C#N)nc12 [Example 56]
IC50 ([1]; Homo sapiens): 100 to 500 nM
IC50 ([2]; Homo sapiens): ≤ 250 nM

CN1CCC1c1ccc(-c2cnc(NCc3c(F)ccc4c3CCO4)n3cc(C#N)nc23)cc1 (stereo not drawn) [Example 221]
IC50 ([1]; Homo sapiens): 100 to 500 nM
IC50 ([2]; Homo sapiens): ≤ 250 nM

N#Cc1cn2c(NCc3c(F)ccc4c3CCO4)ncc(-c3cnc(C4CC4)cn3)c2n1 [Example 70]
IC50 [3]: < 100 nM
IC50 ([1]; Homo sapiens): < 100 nM
IC50 ([2]; Homo sapiens): ≤ 250 nM

N#Cc1cn2c(NCc3c(F)ccc4c3CCO4)ncc(-c3cnn(CC4CCOC4)c3)c2n1 (stereo not drawn) [compound 154]
IC50 [1]: 100 to 500 nM
IC50 [2]: 250 to 500 nM
